Each compound was assayed on V79 (assay: Cytotoxic effect of compound was measured in lipid V79cell formulation.). Conditions: Cricetulus griseus.
Assay type: functional, cell-based

SMILES | IC50
CCCCCCCCCCCCOCC(CN)OCCCCCCCCCCCC (stereo not given) | 75 µM
CCCCCCCCCCCCCCCCCCOCC(CN)OCCCCCCCCCCCC (stereo not given) | 76 µM
CCCCCCCCCCCCCCCCCCOCC(CN)OCCCCCCCCCCCCCCCCCC (stereo not given) | 67 µM
CCCCCCCCCCCCOCC(CNC(=O)[C@@H](N)CCCCN)OCCCCCCCCCCCC (stereo not given in full) | 34 µM
CCCCCCCCCCCCOCC(CNC(=O)[C@@H](N)CCCN=C(N)N)OCCCCCCCCCCCC (stereo not given in full) | 20 µM

Reference: ChEMBL document CHEMBL1135738, “Synthesis of novel cationic lipids: effect of structural modification on the efficiency of gene transfer” (J Med Chem, 2002)
